What all share (conditions): averaged IC50
In test [1] the target is His-tagged recombinant human AXL cytoplasmic domain (Homo sapiens (Human), UniProt P30530). Put plainly: AXL Enzyme Assay (LanthaScreen Eu Kinase Binding, TR-FRET). Summed up:
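Compound displacement measured by TR-FRET after 60 min at 22 °C, using Eu-based LanthaScreen binding technology. Ratiometric emission converted to percent of control, fitted to a 4-parameter logistic curve, with IC50 at 50 POC.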
(In TR-FRET formats the signal depends on donor and acceptor labels being close together.)

The target in test [2] is His-tagged recombinant human MER cytoplasmic domain (Homo sapiens (Human), UniProt Q12866). The experiment in a line: MER Enzyme Assay (LanthaScreen Eu Kinase Binding, TR-FRET). Summed up:
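Percent of control, derived from ratiometric TR-FRET emission, was fitted to a 4-parameter logistic curve and IC50 taken at 50 POC. Binding was read after 60 min at 22 °C using Eu-based LanthaScreen technology and recombinant His-tagged MER cytoplasmic domain.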

The target of test [3] is GST-tagged recombinant human TYRO3 kinase domain (Homo sapiens (Human), UniProt Q06418). The experiment in a line: TYRO3 Enzyme Assay (LanthaScreen Eu Kinase Binding, TR-FRET). In outline: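 LanthaScreen Eu binding (tracer displacement) format read by TR-FRET after 60 min at 22 °C. Emission ratio converted to percent of control; IC50 taken where a 4-parameter logistic fit crosses 50 POC.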

Where a name gives a salt, the structure may show the parent alone. Bounds are passed on as bounds.

GST-tagged recombinant human TYRO3 kinase domain, sequence (Q06418 518-790): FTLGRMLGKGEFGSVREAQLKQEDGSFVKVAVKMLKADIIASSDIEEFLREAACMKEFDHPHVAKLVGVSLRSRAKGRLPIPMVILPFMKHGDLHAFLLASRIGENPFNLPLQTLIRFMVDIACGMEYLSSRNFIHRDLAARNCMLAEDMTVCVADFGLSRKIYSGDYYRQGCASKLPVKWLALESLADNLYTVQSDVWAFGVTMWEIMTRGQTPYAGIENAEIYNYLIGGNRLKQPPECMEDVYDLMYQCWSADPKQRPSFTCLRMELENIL
His-tagged recombinant human AXL cytoplasmic domain, sequence (P30530 473-894): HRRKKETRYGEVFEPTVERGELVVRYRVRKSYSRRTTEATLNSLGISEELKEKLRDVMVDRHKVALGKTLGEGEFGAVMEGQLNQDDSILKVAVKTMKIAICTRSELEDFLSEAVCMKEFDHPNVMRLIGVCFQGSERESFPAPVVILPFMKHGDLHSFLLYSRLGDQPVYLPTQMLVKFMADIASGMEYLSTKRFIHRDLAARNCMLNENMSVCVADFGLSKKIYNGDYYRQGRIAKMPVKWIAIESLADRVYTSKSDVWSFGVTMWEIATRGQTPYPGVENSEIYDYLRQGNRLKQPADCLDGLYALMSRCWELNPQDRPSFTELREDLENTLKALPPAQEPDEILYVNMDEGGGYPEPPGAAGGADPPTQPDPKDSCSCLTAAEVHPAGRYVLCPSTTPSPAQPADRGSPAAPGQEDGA
His-tagged recombinant human MER cytoplasmic domain, sequence (Q12866 527-999): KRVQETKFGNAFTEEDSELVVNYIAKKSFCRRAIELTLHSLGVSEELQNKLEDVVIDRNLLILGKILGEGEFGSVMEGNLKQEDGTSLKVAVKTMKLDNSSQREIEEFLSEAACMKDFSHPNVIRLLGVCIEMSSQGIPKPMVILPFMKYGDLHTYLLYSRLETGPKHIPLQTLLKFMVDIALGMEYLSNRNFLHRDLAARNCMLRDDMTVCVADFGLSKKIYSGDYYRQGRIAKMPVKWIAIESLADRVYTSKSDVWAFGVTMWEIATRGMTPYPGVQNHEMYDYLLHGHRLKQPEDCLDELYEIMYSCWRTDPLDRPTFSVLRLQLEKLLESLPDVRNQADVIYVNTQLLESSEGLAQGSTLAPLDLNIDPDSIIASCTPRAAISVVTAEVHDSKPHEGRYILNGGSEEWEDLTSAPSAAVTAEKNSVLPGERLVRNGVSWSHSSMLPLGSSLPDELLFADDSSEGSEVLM

A word on the IC50: it is the midpoint of a concentration-inhibition curve. As for `CCNc1cc2c(cn1)c(-c1ccn(C)c(=O)c1)nn2[C@H]1CC[C@@H](Oc2cccnc2C(F)(F)F)CC1` [Example 219, 4-(6-(ethylamino)-1-((1s,4s)-4-((2-(trifluoromethyl)pyridin-3-yl)oxy)cyclohexyl)-1H-pyrazolo[4,3-c]pyridin-3-yl)-1-methylpyridin-2(1H)-one hydrochloride], the IC50 in test [1], in test [2] and in test [3] was less than 10 nM throughout.

On to `CCNc1cc2c(cn1)c(N1CC[C@@H](NC)C1)nn2[C@H]1CC[C@@H](Oc2cccc(C(F)(F)F)c2F)CC1` [Example 492, N-ethyl-1-((1s,4S)-4-(2-fluoro-3-(trifluoromethyl)phenoxy)cyclohexyl)-3-((R)-3-(methylamino)pyrrolidin-1-yl)-1H-pyrazolo[4,3-c]pyridin-6-amine], for which the IC50 in test [1] is less than 10 nM; in test [2] it was less than 10 nM; in test [3], 10 to 100 nM.

As to `CNc1cc2c(cn1)c(-c1cnn([C@H]3CCNC[C@@H]3F)c1)nn2[C@H]1CC[C@@H](Oc2ccccc2F)CC1` [Example 399, 1-((1s,4R)-4-(2-fluorophenoxy)cyclohexyl)-3-(1-((3S,4S)-3-fluoropiperidin-4-yl)-1H-pyrazol-4-yl)-N-methyl-1H-pyrazolo[4,3-c]pyridin-6-amine], the IC50 in test [1] was less than 10 nM; in test [2], less than 10 nM; in test [3], 10 to 100 nM.

Turning to `CNc1cc2c(cn1)c(-c1cnn(C[C@@H](O)CO)c1)nn2[C@H]1CC[C@@H](Oc2cccnc2C(F)(F)F)CC1` [Example 206, ®-3-(4-(6-(methylamino)-1-((1s,4s)-4-((2-(trifluoromethyl)pyridin-3-yl)oxy)cyclohexyl)-1H-pyrazolo[4,3-c]pyridin-3-yl)-1H-pyrazol-1-yl)propane-1,2-diol], the IC50 in test [1], in test [2] and in test [3] was less than 10 nM each time.

Turning to `CCNc1cc2c(cn1)c(-c1cnn(C)c1)nn2[C@H]1CC[C@@H](Oc2nccnc2CC)CC1` [Example 190, N-ethyl-1-((1s,4s)-4-((3-ethylpyrazin-2-yl)oxy)cyclohexyl)-3-(1-methyl-1H-pyrazol-4-yl)-1H-pyrazolo[4,3-c]pyridin-6-amine], the IC50 was less than 10 nM in test [1], less than 10 nM in test [2] and 10 to 100 nM in test [3].

With `CCNc1cc2c(cn1)c(N1CC[C@@H](N)C1)nn2[C@H]1CC[C@@H](Oc2nccc(C(F)(F)F)c2F)CC1` [Example 494, 3-((R)-3-aminopyrrolidin-1-yl)-N-ethyl-1-((1s,4S)-4-((3-fluoro-4-(trifluoromethyl)pyridin-2-yl)oxy)cyclohexyl)-1H-pyrazolo[4,3-c]pyridin-6-amine], the half-maximal inhibitory concentration (IC50) in test [1] was less than 10 nM; in test [2], less than 10 nM; in test [3], 10 to 100 nM.

For the molecule `CNc1cc2c(cn1)c(-c1ccc(CN3CCN(CCO)CC3)cc1)nn2[C@H]1CC[C@@H](Oc2ccc(=O)n(C)n2)CC1` [Example 78, 6-(((1s,4s)-4-(3-(4-((4-(2-hydroxyethyl)piperazin-1-yl)methyl)phenyl)-6-(methylamino)-1H-pyrazolo[4,3-c]pyridin-1-yl)cyclohexyl)oxy)-2-methylpyridazin-3(2H)-one], the IC50 in test [1] was less than 10 nM; in test [2], less than 10 nM; in test [3] it was 100 to 1000 nM.

As for `CNc1cc2c(cn1)c(-c1ccc3c(c1)CNC3=O)nn2[C@H]1CC[C@@H](Oc2cccnc2C(F)(F)F)CC1` [Example 218, 5-(6-(methylamino)-1-((1s,4s)-4-((2-(trifluoromethyl)pyridin-3-yl)oxy)cyclohexyl)-1H-pyrazolo[4,3-c]pyridin-3-yl)isoindolin-1-one], the IC50 in test [1], in test [2] and in test [3] was less than 10 nM each time.

Take `CCNc1cc2c(cn1)c(-c1cnn(C(CO)CO)c1)nn2[C@H]1CC[C@@H](Oc2ccc(F)cc2F)CC1` [Example 414, 2-(4-(1-((1s,4s)-4-(2,4-difluorophenoxy)cyclohexyl)-6-(ethylamino)-1H-pyrazolo[4,3-c]pyridin-3-yl)-1H-pyrazol-1-yl)propane-1,3-diol]: the IC50 in test [1] was less than 10 nM; in test [2] it was less than 10 nM; in test [3], 10 to 100 nM.

`CNc1cc2c(cn1)c(-c1cnn(C)c1)nn2[C@H]1CC[C@@H](Oc2ccc(=O)[nH]c2C(F)(F)F)CC1` [Example 105, 5-(((1s,4s)-4-(3-(1-methyl-1H-pyrazol-4-yl)-6-(methylamino)-1H-pyrazolo[4,3-c]pyridin-1-yl)cyclohexyl)oxy)-6-(trifluoromethyl)pyridin-2(1H)-one]: the IC50 in test [1], in test [2] and in test [3] was less than 10 nM throughout.

For the molecule `CCNc1cc2c(cn1)c(-c1cnn(C[C@H](O)C(C)(C)O)c1)nn2[C@H]1CC[C@@H](Oc2ccc(F)cc2F)CC1` [Example 448, (S)-1-(4-(1-((1s,4S)-4-(2,4-difIuorophenoxy)cyclohexyl)-6-(ethylamino)-1H pyrazolo[4,3-c]pyridin-3-yl)-1H-pyrazol-1-yl)-3-methylbutane-2,3-diol], the IC50 was less than 10 nM in test [1], less than 10 nM in test [2] and 10 to 100 nM in test [3].

In the case of `CCNc1cc2c(cn1)c(N1CCN(C)CC1)nn2[C@H]1CC[C@@H](Oc2nccc(C(F)(F)F)c2F)CC1` [Example 331, N-ethyl-1-((1s,4s)-4((3-fluoro-4-(trifluoromethyl)pyridin-2-yl)oxy)cyclohexyl)-3-(4-methylpiperazin-1-yl)-1H-pyrazolo[4,3-c]pyridin-6-amine], the IC50 in test [1], in test [2] and in test [3] was less than 10 nM throughout.

Regarding `CCNc1cc2c(cn1)c(-c1cnn(CC(=O)NC)c1)nn2[C@H]1CC[C@@H](Oc2nccc(C(F)(F)F)c2F)CC1` [Example 258, 2-(4-(6-(ethylamino)-1-((1s,4s)-4-((3-fluoro-4-(trifluoromethyl)pyridin-2-yl)oxy)cyclohexyl)-1H-pyrazolo[4,3-c]pyridin-3-yl)-1H-pyrazol-1-yl)-N-methylacetamide], the IC50 in test [1], in test [2] and in test [3] was less than 10 nM each time.

Consider `CCNc1cc2c(cn1)c(N1CCOCC1)nn2[C@H]1CC[C@@H](Oc2nccc(C(F)(F)F)c2F)CC1` [Example 330, N-ethyl-1-((1s,4s)-4-((3-fluoro-4-(trifluoromethyl)pyridin-2-yl)oxy)cyclohexyl)-3-morpholino-1H-pyrazolo[4,3-c]pyridin-6-amine], for which the IC50 is less than 10 nM in test [1], less than 10 nM in test [2] and 10 to 100 nM in test [3].

`CCNc1cc2c(cn1)c(-c1cnn(CC(C)(C)O)c1)nn2[C@H]1CC[C@@H](Oc2nccc(C(F)(F)F)c2F)CC1` [Example 300, 1-(4-(6-(ethylamino)-1-((1s,4s)-4-((3-fluoro-4-(trifluoromethyl)pyridin-2-yl)oxy)cyclohexyl)-1H-pyrazolo[4,3-c]pyridin-3-yl)-1H-pyrazol-1-yl)-2-methylpropan-2-ol]: the IC50 in test [1] is less than 10 nM; in test [2], less than 10 nM; in test [3], 10 to 100 nM.

Consider `CNc1cc2c(cn1)c(-c1cnn(C)c1)nn2[C@H]1CC[C@@H](Oc2nccc(C(F)(F)F)c2F)CC1` [Example 173, 1-((1s,4s)-4-((3-fluoro-4-(trifluoromethyl)pyridin-2-yl)oxy)cyclohexyl)-N-methyl-3-(1-methyl-1H-pyrazol-4-yl)-1H-pyrazolo[4,3-c]pyridin-6-amine], for which the IC50 is less than 10 nM in test [1], less than 10 nM in test [2] and 10 to 100 nM in test [3].

Take `CCNc1cc2c(cn1)c(-c1cnn(C(CO)CO)c1)nn2[C@H]1CC[C@@H](Oc2cccnc2C(F)(F)F)CC1` [Example 207, 2-(4-(6-(ethylamino)-1-((1s,4s)-4-((2-(trifluoromethyl)pyridin-3-yl)oxy)cyclohexyl)-1H-pyrazolo[4,3-c]pyridin-3-yl)-1H-pyrazol-1-yl)propane-1,3-diol]: the IC50 in test [1], in test [2] and in test [3] was less than 10 nM throughout.

Turning to `CCNc1cc2c(cn1)c(N1CCC(N(C)C)CC1)nn2[C@H]1CC[C@@H](Oc2nccc(C(F)(F)F)c2F)CC1` [Example 345, 3-(4-(dimethylamino)piperidin-1-yl)-N-ethyl-1-((1s,4s)-4-((3-fluoro-4-(trifluoromethyl)pyridin-2-yl)oxy)cyclohexyl)-1H-pyrazolo[4,3-c]pyridin-6-amine], the IC50 is less than 10 nM in test [1], less than 10 nM in test [2] and 10 to 100 nM in test [3].

On to `CCNc1cc2c(cn1)c(-c1cnn(CC(C)(O)CO)c1)nn2[C@H]1CC[C@@H](Oc2ccccc2F)CC1` (stereo partly drawn) [Example 431, 3-(4-(6-(ethylamino)-1-((1s,4s)-4-(2-fluorophenoxy)cyclohexyl)-1H-pyrazolo[4,3-c]pyridin 3-yl)-1H-pyrazol-1-yl)-2-methylpropane-1,2-diol], for which the values for the IC50 in test [1], in test [2] and in test [3] were less than 10 nM, less than 10 nM and 10 to 100 nM, respectively.

For `CCNc1cc2c(cn1)c(-c1cnn(C)c1)nn2[C@H]1CC[C@@H](Oc2nccc(C(F)(F)F)c2F)CC1` [Example 198, N-ethyl-1-((1s,4s)-4-((3-fluoro-4-(trifluoromethyl)pyridin-2-yl)oxy)cyclohexyl)-3-(1-methyl-1H-pyrazol-4-yl)-1H-pyrazolo[4,3-c]pyridin-6-amine], the IC50 in test [1] is less than 10 nM; in test [2], less than 10 nM; in test [3], 10 to 100 nM.

The record behind these values is patent US11247990B1, “Bicyclic fused pyridine compounds as inhibitors of TAM kinases” (ARRAY BIOPHARMA INC., priority 2017, dated 2022).
